For the test, the system named is CD2F1 mice, L1210 leukemia ip, survival T/C. The test is described as follows: NCI In Vivo Anticancer Drug Screen. Data for tumor model L1210 Leukemia (intraperitoneal) in CD2F1 (CDF1) mice. To be noted: endpoint: mean survival time, higher = longer survival. Put shortly: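 Activity against a transplanted murine tumor was judged by comparing the compound group with a vehicle group. The outcome in the treated animals was divided by that in the controls.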

Where [1] appears, read: dose: 100.0 mg/kg/injection, schedule: Q04DX003 (ip), vehicle: saline with Tween-80.
The mark [2] stands for this setting: dose: 200.0 mg/kg/injection, schedule: Q04DX003 (ip), vehicle: saline with Tween-80.
Where [3] appears, read: dose: 400.0 mg/kg/injection, schedule: Q04DX003 (ip), vehicle: saline with Tween-80.
[4] abbreviates: dose: 100.0 mg/kg/injection, schedule: Q01DX009 (ip), vehicle: saline with Tween-80.
[5] abbreviates: dose: 100.0 mg/kg/injection, schedule: Q01DX001 (ip), vehicle: saline with Tween-80.
[6] abbreviates: dose: 200.0 mg/kg/injection, schedule: Q01DX001 (ip), vehicle: saline with Tween-80.
Setting [7] is: dose: 400.0 mg/kg/injection, schedule: Q01DX001 (ip), vehicle: saline with Tween-80.
The mark [8] stands for this setting: dose: 200.0 mg/kg/injection, schedule: Q01DX009 (ip), vehicle: saline with Tween-80.
Setting [9] is: dose: 400.0 mg/kg/injection, schedule: Q01DX009 (ip), vehicle: saline with Tween-80.
The mark [10] stands for this setting: dose: 100.0 mg/kg/injection, schedule: Q01DX009 (ip), vehicle: saline.

“And” between values parts separate entries of the source, which are not always exact repeats. Identical values can stand only once. Inconclusive results and toxic doses are left out.

For `C/C(=N\O)c1ccc2c3c(ccc([N+](=O)[O-])c13)CC2`, the T/C was 98 % of control under setting [1], 98 % of control under setting [2] and 103 % of control under setting [3].

For `O=C(Nc1ccccc1)c1ccc(Cl)c([N+](=O)[O-])c1`, the T/C is 95 % of control (dose: 25.0 mg/kg/injection, schedule: Q01DX009 (ip), vehicle: saline with Tween-80); 86 % of control (dose: 25.0 mg/kg/injection, schedule: Q04DX003 (ip), vehicle: saline with Tween-80); 97 % of control (dose: 50.0 mg/kg/injection, schedule: Q01DX009 (ip), vehicle: saline with Tween-80); 89 % of control (dose: 50.0 mg/kg/injection, schedule: Q04DX003 (ip), vehicle: saline with Tween-80); 100 % of control under setting [4]; 94 % of control and 101 % of control under setting [1].

On to `C=C1N(c2cc3ccccc3o2)C(=O)OC12CCCCC2`, for which the T/C by setting is: under setting [5], 101 % of control; under setting [6], 98 % of control; under setting [7], 91 % of control.

As for `Cc1ccc(-c2cc(C(=O)O)c3cc(F)ccc3n2)cc1`, the T/C under setting [1] is 101 % of control, the T/C under setting [2] is 95 % of control and the T/C under setting [3] was 100 % of control.

In the case of `CC(C)(C)CC(C)(C)c1ccc(OCCOc2ccc(C(=O)NCCNC(=O)c3ccc4ccccc4c3O)cc2N)cc1`, the T/C was 89 % of control under setting [8] and 89 % of control under setting [9].

With `O=[N+]([O-])O.[Ho]`, under setting [10], the T/C was 94 % of control.

Regarding `N=[N+]=CC(=O)OCC(N)C(=O)O` (stereo not given), the T/C (dose: 1.0 mg/kg/injection, schedule: Q03HX016 (ip), vehicle: saline) is 168 % of control; the T/C (dose: 2.0 mg/kg/injection, schedule: Q03HX016 (ip), vehicle: saline) is 168 % of control; the T/C (dose: 2.0 mg/kg/injection, schedule: Q03HX024 (ip), vehicle: saline) is 153 % of control and 163 % of control; the T/C (dose: 4.0 mg/kg/injection, schedule: Q03HX016 (ip), vehicle: saline) is 182 % of control; the T/C (dose: 4.0 mg/kg/injection, schedule: Q03HX024 (ip), vehicle: saline) is 171 % of control and 174 % of control; the T/C (dose: 8.0 mg/kg/injection, schedule: Q03HX016 (ip), vehicle: saline) is 115 % of control. The T/C (dose: 8.0 mg/kg/injection, schedule: Q03HX024 (ip), vehicle: saline) is 113 % of control and 115 % of control; the T/C (dose: 12.5 mg/kg/injection, schedule: Q01DX009 (ip), vehicle: saline) was 167 % of control; the T/C (dose: 25.0 mg/kg/injection, schedule: Q01DX007 (ip), vehicle: saline) is 122 % of control; the T/C (dose: 25.0 mg/kg/injection, schedule: Q01DX009 (ip), vehicle: saline) is 100 % of control; the T/C (dose: 50.0 mg/kg/injection, schedule: Q01DX007 (ip), vehicle: saline) was 96 % of control; the T/C (dose: 50.0 mg/kg/injection, schedule: Q03DX003 (ip), vehicle: saline) is 151 % of control.

`CC(=O)OCC1OC(OC(C)=O)C(NC(=O)Nc2ccccc2)C(OC(C)=O)C1OC(C)=O` (stereo not given): the T/C by setting is: (dose: 12.5 mg/kg/injection, schedule: Q01DX009 (ip), vehicle: other) 96 % of control; (dose: 25.0 mg/kg/injection, schedule: Q01DX009 (ip), vehicle: other) 94 % of control; (dose: 50.0 mg/kg/injection, schedule: Q01DX009 (ip), vehicle: other) 96 % of control; (dose: 100.0 mg/kg/injection, schedule: Q01DX009 (ip), vehicle: other) 93 % of control; (dose: 200.0 mg/kg/injection, schedule: Q01DX009 (ip), vehicle: other) 94 % of control.

For the compound `COc1ccc(OC)c(NC(=O)Nc2ccc(S(N)(=O)=O)cc2)c1`, the T/C under setting [4] is 98 % of control, the T/C under setting [8] was 93 % of control and the T/C under setting [9] was 96 % of control.

For `Cn1c(=O)[nH]c2c(nc(-c3ccccc3)n2Cc2ccccc2)c1=O`, the T/C reads like this: (dose: 7.8 mg/kg/injection, schedule: Q01DX005 (ip), vehicle: other) 95 % of control; (dose: 15.6 mg/kg/injection, schedule: Q01DX005 (ip), vehicle: other) 95 % of control; (dose: 31.3 mg/kg/injection, schedule: Q01DX005 (ip), vehicle: other) 91 % of control; (dose: 62.5 mg/kg/injection, schedule: Q01DX005 (ip), vehicle: other) 91 % of control; (dose: 125.0 mg/kg/injection, schedule: Q01DX005 (ip), vehicle: other) 95 % of control.

As to `[I][Pt+2][I].[NH-]N1CCN([NH-])CC1`, the T/C is 102 % of control (dose: 3.13 mg/kg/injection, schedule: Q04DX003 (ip), vehicle: distilled water + Tween-80); 100 % of control (dose: 6.25 mg/kg/injection, schedule: Q04DX003 (ip), vehicle: distilled water + Tween-80); 102 % of control (dose: 12.5 mg/kg/injection, schedule: Q04DX003 (ip), vehicle: distilled water + Tween-80); 102 % of control (dose: 25.0 mg/kg/injection, schedule: Q04DX003 (ip), vehicle: distilled water + Tween-80); 104 % of control (dose: 50.0 mg/kg/injection, schedule: Q04DX003 (ip), vehicle: distilled water + Tween-80); 102 % of control (dose: 100.0 mg/kg/injection, schedule: Q04DX003 (ip), vehicle: distilled water + Tween-80). In addition, where the note is “dose: 200.0 mg/kg/injection, schedule: Q04DX003 (ip), vehicle: distilled water + Tween-80”, the T/C is 100 % of control.

With `C[C@H]1CN1C1=CC(=O)C(N2C[C@@H]2C)=CC1=O`, the T/C runs as follows: (dose: 3.13 mg/kg/injection, schedule: Q01DX009 (ip), vehicle: other) 183 % of control; (dose: 4.69 mg/kg/injection, schedule: Q01DX009 (ip), vehicle: other) 168 % of control; (dose: 6.25 mg/kg/injection, schedule: Q01DX009 (ip), vehicle: other) 123 % of control; (dose: 12.6 mg/kg/injection, schedule: Q01DX001 (ip), vehicle: other) 116 % of control; (dose: 18.7 mg/kg/injection, schedule: Q04DX003 (ip), vehicle: saline with Tween-80) 98 % of control.

Turning to `Cc1ccccc1C(C)C`, the T/C under setting [1] was 101 % of control, the T/C under setting [2] is 97 % of control and the T/C under setting [3] was 101 % of control.

Regarding `NNc1nc2c(=O)[nH]cnc2n1C1OC(CO)C(O)C1O` (stereo not given), the T/C runs as follows: (dose: 12.5 mg/kg/injection, schedule: Q01DX005 (ip), vehicle: distilled water + Tween-80) 98 % of control; (dose: 25.0 mg/kg/injection, schedule: Q01DX005 (ip), vehicle: distilled water + Tween-80) 98 % of control; (dose: 50.0 mg/kg/injection, schedule: Q01DX005 (ip), vehicle: distilled water + Tween-80) 100 % of control; (dose: 100.0 mg/kg/injection, schedule: Q01DX005 (ip), vehicle: distilled water + Tween-80) 107 % of control; (dose: 200.0 mg/kg/injection, schedule: Q01DX005 (ip), vehicle: distilled water + Tween-80) 104 % of control.

In the case of `NC(=O)COS(=O)(=O)O`, the T/C under setting [10] was 104 % of control; the T/C (dose: 200.0 mg/kg/injection, schedule: Q01DX009 (ip), vehicle: saline) was 104 % of control; the T/C (dose: 400.0 mg/kg/injection, schedule: Q01DX009 (ip), vehicle: saline) was 108 % of control.

As to `Cc1cc(N(CCCl)CCCl)c(C)cc1NC(=O)c1ccccc1`, the T/C reads like this: (dose: 4.0 mg/kg/injection, schedule: Q01DX009 (ip), vehicle: saline) 106 % of control; (dose: 6.0 mg/kg/injection, schedule: Q01DX009 (ip), vehicle: saline) 115 % of control; (dose: 10.0 mg/kg/injection, schedule: Q01DX009 (ip), vehicle: saline) 113 % of control; (dose: 18.0 mg/kg/injection, schedule: Q01DX009 (ip), vehicle: saline) 121 % of control; (dose: 30.0 mg/kg/injection, schedule: Q01DX009 (ip), vehicle: saline) 124 % of control.

With `Oc1c(Cl)c(Cl)c(Cl)c(Cl)c1Cl` (tested in a mixture with another compound), the T/C is 96 % of control (dose: 25.0 mg/kg/injection, schedule: Q04DX003 (ip), vehicle: saline); 103 % of control (dose: 50.0 mg/kg/injection, schedule: Q04DX003 (ip), vehicle: saline); 96 % of control (dose: 100.0 mg/kg/injection, schedule: Q04DX003 (ip), vehicle: saline).

On to `CSc1nc2cc(C)c(C)cc2[nH]1`, for which the T/C under setting [5] is 103 % of control; the T/C under setting [4] was 97 % of control; the T/C under setting [6] was 97 % of control; the T/C under setting [8] was 97 % of control; the T/C under setting [7] was 105 % of control; the T/C under setting [9] is 94 % of control.
